{"source": "patent US9890192B2", "about": "“Targeted nitroxide agents” (University of Pittsburgh—of the Commonwealth System of …, priority 2008, dated 2018)", "key": {"[1]": {"system": "phospholipids in intestinal mucosa", "test": "Peroxidation of phospholipids in gut mucosa after hemorrhagic shock", "type": "in vivo, rat", "conditions": "10 μM intraluminal; 2 h HS", "description": "Assay for peroxidation of phospholipods. Gut mucosal samples were homogenized. Lipids were extracted from homogenates using the Folch procedure, see M. Lees and G. H. Sloan-Stanley, A simple method for isolation and purification of total lipids from animal tissue, J. BIOL. CHEM. 226:497-509 (1957), and resolved by 2D HPTLC (High Performance Thin Layer Chromatography) as previously described, see Kagan, V. E. et al., A role for oxidative stress in apoptosis: Oxidation and externalization of phosphatidylserine is required for macrophage clearance of cell undergoing Fas-mediated apoptosis, J Immunol. 169:487-489 (2002). Spots of phospholipids were scraped from HPTLC plates and phospholipids were extracted from silica. Lipid phosphorus was determined by a micro-method, see Bottcher, C. J. F. et al, A rapid and sensitive sub-micro phosphons determination. Anal Chim Acta. 24: 203-204 (1961).\nOxidized phospholipids were hydrolyzed by pancreatic phospholipase A2 (2 U/μl) in 25 mM phosphate buffer containing 1 mM CaCl2. 0.5 mM EDTA and 0.5 mM sodium dodecyl sulfate (SDS) (pH 8.0, at room temperature for 30 min). Fatty acid hydroperoxides formed were determined by fluorescence HPLC of resorufin stoichiometrically formed during their microperoxidase 11-catalized reduction in presence of Amplex Red (for 40 min at 4° C.) (8). Fluorescence HPLC (Eclipse XDB-C18 column, 5 μm, 150×4.6 mm, mobile phase was composed of 25 mM disodium phosphate buffer (pH 7.0)/methanol (60:40 v/v); excitation wavelength 560 nm, emission wavelength 590 nm) was performed on a Shimadzu LC-100AT HPLC system equipped with fluorescence detector (RF-10Axl) and autosampler (SIL-10AD).\nIn the subsequent series of in vivo studies, the affect of intraluminal XJB-5-131 on hemorrhage-induced peroxidation of phospholipids in intestinal mucosa was examined. […] In a preferred embodiment, 0.3 mL of test solution filled the lumen of each ileal compartment.\nAfter two hours of HS, samples of ileal mucosa from the gut sacs filled with the vehicle and XJB-5-131 were obtained and compared with ileal mucosa of normal MECs. […]"}, "[2]": {"system": "Ercc1−/cond; K14-Cre mice", "test": "Photoaging after UV-B in Ercc1−/cond; K14-Cre mice", "type": "in vivo, mouse", "conditions": "80 μg in a cream daily for five days", "method": "As a measure of the effect of XJB-5-131 on photoaging, Ercc1^−/cond; K14-Cre mice, which are missing ERCC1 only in the skin, were shaved, treated with a depilatory then irradiated with UV-B light to induce a sunburn (500 J/m^2, the median erythemal dose). Subsequently, the mice were treated with XJB-5-131 (80 μg) emulsified in a cream daily for five days."}, "[3]": {"system": "MEF cells from Ercc1−/− mouse embryos", "test": "Senescence, DNA damage and apoptosis in Ercc1−/− MEF cells under ambient oxygen", "type": "cell-based", "conditions": "500 nM", "method": "Graphs showing weight over time of treated, untreated and control animals are shown in FIG. 36A-B. To assess the impact of XJB-5-131 at a cellular level, a number of experiments were carried out using mouse embryonic fibroblasts (“MEF”) cells harvested from Ercc1^−/− mouse embryos."}, "[4]": {"system": "γ-H2AX in primary MEF cells from Ercc1−/− mice", "test": "γ-H2AX immunostaining in Ercc1−/− MEFs under oxidative stress", "type": "cell-based, mouse", "conditions": "1 μM, 48 hours", "method": "Next, the abilities of these two agents, as well as XJB-5-131 and JP4-039, each at a concentration of 1 μM, were tested for their ability to prevent oxidation-induced DNA double-strand breaks in cell cultures prepared, and oxidatively stressed, as in the preceding paragraph. Treated as well as untreated cells were, after 48 hours of treatment, immunostained for γ-H2AX, a marker of DNA double-strand breaks as well as cellular senescence."}}}
{"compound": "CC(C)C[C@@H](/C=C/[C@H](Cc1ccccc1)C(=O)N1CCC[C@H]1C(=O)N[C@H](C(=O)N[C@@H](CCCNC(=O)OCc1ccccc1)C(=O)NC1CC(C)(C)N([O])C(C)(C)C1)C(C)C)NC(=O)OC(C)(C)C", "note": "[XJB-5-131]", "values": [{"measurement": "peroxidation of phosphatidylcholine (PC)", "setting": "[1]", "value": "no effect"}, {"measurement": "peroxidation of phosphatidylethanolamine (PE)", "setting": "[1]", "value": "only had a small effect"}, {"measurement": "peroxidation of phosphatidylserine (PS)", "setting": "[1]", "value": "no effect"}, {"measurement": "appearance of skin after UV-B", "setting": "[2]", "value": "much more smooth and healthy"}, {"measurement": "SA-β galactosidase staining", "setting": "[3]", "value": "notably less"}, {"measurement": "apoptosis", "setting": "[3]", "value": "did not reduce the amount of apoptosis"}, {"measurement": "γH2AX foci", "setting": "[3]", "value": "reduce the number of γH2AX foci"}, {"measurement": "γ-H2AX (oxidation-induced DNA double-strand breaks)", "setting": "[4]", "value": "less effective"}]}
